Laboratory results as given in patent US6338963B1, “Use of carbon monoxide dependent guanylyl cyclase modifiers to stimulate neuritogenesis” (NeoTherapeutics, Inc., priority 1994, dated 2002).
Marks after values point to notes of the source that are not given here. No end group written: not given here.

Columns and labels:
TGFβ2 = TGFβ2 release from rat cultured astrocytes (ELISA); type: cell-based; details: 100 nm wortmannin, 10 μM PD098,059 or 500 ng/ml CHX added 30 min before and kept 24 hours with 100 μM AIT-082
Experimental: (§1) NGF and TGFβ2 levels were assayed in the culture medium of the astrocytes by specific ELISA assays using kits from Roche (Germany) and Promega (USA) respectively. NGF basal levels were 56.3±3.2 pg/ml. TGFβ2 levels were 9.1±0.06 pg/ml.
(§2) In FIG. 61, the dose-response curves of NGF and TGFβ2 release from rat cultured astrocytes as the result of exposure to AIT-082 are shown.

NGF = NGF release from rat cultured astrocytes (ELISA); type: cell-based; details: 100 nm wortmannin, 10 μM PD098,059 or 500 ng/ml CHX added 30 min before and kept 24 hours with 100 μM AIT-082
Experimental: The dose response for AIT-082 and guanosine on nerve growth factor and S100β protein release from rat culture astrocytes is shown in FIG. 30. NGF was assayed by a double-site ELISA, using a monoclonal anti-NGF antibody, coupled or not to β-galactosidase according to the method of I. D. Laviada et al., “Phosphatidylcholine-Phospholipase C Mediates the Induction of Nerve Growth Factor in Cultured Glial Cells,” FEBS Lett. 364: 301-304 (1995).
The NGF and S100β protein were measured by removing the cultured medium for the ELISA assays at each indicated time point.
as §1, §2

[1] = test system: cGMP levels in PC12 cells; assay: cGMP levels in PC12 cells (radioimmunoassay); type: cell-based, rat; details: NGF-primed PC12 cells
Experimental: Initially, PC-12 cells were primed with 40 ng/ml NGF for 3 days in low serum medium (1.5% horse serum+5% fetal calf serum). Cells were seeded onto assay plates in low serum medium containing 40 ng/ml NGF and incubated for 1 hour. The medium was changed to low arginine medium (80 μM) with no serum and NGF and papaverine ([…]) where indicated. Test compounds were added for the indicated time and the reaction was stopped by adding 5% TCA containing 10,000 dpm of ^3H-cGMP. cGMP was assayed by the radioimmunoassay method of Maurice (Mol. Pharmacol. 37: 671-681, 1990). TCA was purified by adding powdered charcoal (5 g) and filtering the mixture through Whatman #1 paper. This removed contaminants in the TCA that otherwise interfere with the radioimmunoassay (RIA) of cGMP.
It was necessary to purify the cGMP from cAMP and other contaminants before radioimmunoassay since these other materials can interfere with the assay. Briefly, the TCA solution was applied to Dowex columns (50W-8X, 200-400 mesh) and eluted. A neutral alumina column was then placed under each Dowex column. The cGMP was eluted from the Dowex columns into neutral alumina columns by adding 4 mL of 0.05 M HCl to each Dowex column. The neutral alumina columns were then sequentially rinsed with 2 ml of HCl, 4 mL water and finally with 0.2 M sodium acetate (pH 6.2). The cGMP collected for the RIA eluted in 1 ML of sodium acetate with a recovery between 50-65%. The cGMP was assayed using a Dupont RIA kit.

PC12 cells = assay: Neuritogenesis in PC12 cells; type: cell-based, rat; details: for neurite outgrowth in the absence of NGF: compound alone; for enhancement of NGF-induced neurite outgrowth: in the presence of NGF, 48 hours; for effect of inhibitor on NGF neuritogenic activity: PC12 cells with NGF
Experimental: Much of the work performed in the characterization of the compounds of the present invention involved the use of PC12 cells. These cells are derived from a rat pheochromocytoma and when grown in the presence of NGF, extend neurites, cease cell division and assume many characteristics of sympathetic neurons. When cultured in the absence of nerve growth factor (NGF), few PC12 cells have neurites greater than one cell diameter. Addition of saturating concentrations of NGF for 48 hours stimulates neurite outgrowth in about 20-35% of the cells. Because they constitute a homogeneous population of neuronal-like cells, without contaminating astroglia type cells, it is possible to study the direct effects of the purine based compounds on neurite outgrowth in these cells.
Cells cultured in RPMI 1640 with 1.5% horse serum and 1.5% fetal bovine serum were re-plated onto poly-ornithine coated 24-well culture plates (2.5×10^4 cells per well). AIT-082 and NGF were added to the various cultures immediately upon plating. After 48 hours, medium was removed and the cells irnmediately fixed in 10% formalin and PBS for 10 minutes. Cells and neurites were counted within 2 days of fixation.
A neurite was defined as a process extending from the cell at least 1 cell body diameter in length and displaying a growth cone at its tip. For each treatment, 2 representative microscope fields were counted from each of 6 sister cultures receiving identical treatments. The total number of cells counted per well (approximately 100 cells) and the total number of cells containing neurites in each well were used to determine fraction of neurite-bearing cells. The mean values (±SEM) were then determined for each of the treatments. To facilitate comparison neurite outgrowth was expressed relative to the proportion of cells bearing neurites in the presence of NGF alone (NGF=100%). The effects of compounds with and without NGF were compared by analysis of variance (ANOVA) followed by Tukey's test for significance.
The results are shown in FIG. 3 where the curve represents different levels of AIT-082 plus saturating concentrations (40 ng/ml) NGF. The center horizontal line represents control values for cells cultured in the presence of 40 ng/ml NGF alone. Upper and lower horizontal lines are indicative of confidence limits of NGF alone as determined using standard statistical methods.

C57BL/6 mice [2] = assay: Win-shift test, C57BL/6 mice with age-induced memory deficits; type: in vivo; details: for subjects performing significantly above chance/total number of subjects: PHY 0.125 mg/kg
Experimental: Twelve-month old male C57BL/6 mice were screened for performance in the win-shift foraging test. Subjects were tested at various inter-trial time intervals. Subjects who could not perform to criteria (>60% correct) at 10 seconds delay were classified as having a severe deficit. Subjects who performed to criteria at 10 seconds but not at 30 seconds were classified as having a moderate degree of deficit and subjects who performed to criteria at 30 seconds but not at 60 seconds were classified as having mild deficit. As in Example 21, subjects in each group were treated with either AIT-082 or PHY to determine the extent to which the working memory trace was prolonged. The results are presented in Table M directly below and graphically represented in FIG. 10.

Swiss Webster mice [3] = assay: Win-shift test, Swiss Webster mice with age-induced memory deficits; type: in vivo; details: PHY 0.125 mg/kg
Experimental: Twelve-month old male Swiss Webster mice were screened for performance in the win-shift foraging test. Subjects were tested at various time delays, beginning at 10 seconds and increasing the inter-trial time interval to 30, 60, 90 and 120 seconds.
Subjects with severe impairment could not remember the correct response at 10 seconds while subjects with mild deficit could remember the correct response with a 30 second inter-trial interval but not at 60 seconds. Subjects with a moderate deficit could remember the correct response with a 10 second inter-trial interval but not […] at 30 seconds. Thus, the win-shift model can detect age-induced impairments in working memory. As will be appreciated by those skilled in the art, this observation is important since it provides the ability to use age-matched subjects with varying degrees of impairment for evaluation of potential therapeutic agents.
Following the establishment of a baseline, six subjects in each of the three groups were treated with AIT-82 (30 mg/kg, one hour before testing) or physostigmine (0.125 mg/kg, 30 minutes before testing) using the win-shift foraging test. The results are presented in Table L directly below and graphically represented in FIG. 9.

Swiss Webster mice [4] = assay: Win-shift T-maze memory test, Swiss Webster mice; type: in vivo; details: 90-second inter-trial interval, PHY 0.125 mg/kg i.p.
Experimental: Male Swiss Webster mice six months (young adult) and eleven months (old) of age, obtained from the National Institute on Aging, were maintained in individual cages, on a […] light/dark cycle with continuous access to water. Food was limited so that the mice stabilized at 80% of free feeding weight. Mice were weighed and handled daily for one week. The win-shift model was run as described in the literature and consists of a T-maze in which the correct response alternates after each correct trial. The interval between trials is varied and allows for the determination of the longest period between trials that a subject can remember the correct response on the previous trial. This allows the measure of the duration of the memory trace. […] The reward goal box is alternated after each correct trial. Ten trials per mouse are run each day. […] The latency time to leave the start box is recorded as a measure of motivation, the running time (the time from leaving the start box to reaching the goal box) is recorded as a measure of performance, and the number of correct responses as a measure of memory.
The drugs used in this example are 4-((3-(1,6-dihydro-6-oxo-9-purin-9-yl)-1-oxopropyl)amino) benzoic acid (AIT-082), as an exemplary potassium salt, tacrine hydrochloride (tetrahydroaminoacridine, THA, Sigma Chemical Co., St. Louis, Mo.), and physostigmine, hemisulfate salt (PHY, Sigma Chemical Co., St. Louis, Mo.). The drugs were dissolved in saline and prepared fresh daily. All injections were made at a volume of 0.1 ml/10 grams body weight. When testing drug effects, intraperitoneal (i.p.) injections of AIT-082 or THA were made one hour prior to the start of testing. Due to its shorter duration of action, PHY was injected 30 minutes prior to testing. Control subjects receive a similar injection of saline (vehicle).
(§3) To determine the duration of the memory trace, subjects were administered drug or saline and 30 minutes (PHY) or 1 hour (AIT-082 or THA) later they were given a single reference run with the milk reward in both goal boxes. After the indicated inter-trial delay, subjects were returned to the start box and given the first test trial with the milk reward only in the goal box opposite to the one entered on the previous correct trial. The subjects were given 10 trials with the reward alternating only after correct responses.
To determine if tolerance to the biological effects of AIT-082 developed, drug or saline was administered daily for 18 days prior to the testing in the standard win-shift paradigm.

C57BL/6 mice [5] = assay: Win-shift duration of memory trace, C57BL/6 mice; type: in vivo; details: for Correct (Mean score ± S.E.) / No. above chance/Total #: Physostigmine 0.125 mg/kg
Experimental: as §3
Previous work has established that normal adult Swiss Webster mice have a memory trace duration of 60 seconds in the win-shift paradigm which may be increased by the administration of AIT-082.

[6] = Moderate deficit, interval 30 sec
[7] = Moderate deficit, interval 60 sec
[8] = Severe deficit, interval <10 sec

COc1cccc(-c2cc(=O)c3ccccc3o2)c1N [PD098,059, reference compound]
effect of inhibitor on AIT-082-induced accumulation of TGFβ2 (TGFβ2): partly inhibited
effect of inhibitor on AIT-082-induced accumulation of NGF (NGF): partly inhibited

CNc1ccc2oc(C[C@H]3O[C@@]4(CC[C@H]3C)O[C@H]([C@H](C)C(=O)c3ccc[nH]3)[C@H](C)C[C@H]4C)nc2c1C(=O)O [A23187, reference compound]
cGMP in PC12 cells [1]: failed to elicit an increase in cGMP

O=NO [SN, sodium nitrite]
neurite outgrowth in the absence of NGF (PC12 cells): neither SNP nor SN elicited neurite outgrowth
enhancement of NGF-induced neurite outgrowth (PC12 cells): enhanced NGF-mediated neurite outgrowth in a synergistic manner

Nc1ncnc2c1ncn2[C@@H]1O[C@H](CO)[C@@H](O)[C@H]1O [adenosine]
modification of neural activity (PC12 cells): relatively ineffective
neurite outgrowth in the absence of NGF (PC12 cells): slightly increased the proportion of cells with neurites
enhancement of NGF-induced neurite outgrowth (PC12 cells): did not enhance NGF induced neurite outgrowth at any concentration

ANF: atrial natriuretic factor, a hormone activating particulate guanylyl cyclase (SLRRSSCFGGRMDRIGAQSGLGCNSFRY; ends and bridges not checked; cysteine pairing not given here; UniProt P01160 124-151, looked up)
enhancement of NGF-induced neurite outgrowth (PC12 cells): enhanced NGF-stimulated neurite outgrowth

CN(C)c1ccc2nc3ccc(=[N+](C)C)cc-3sc2c1 [Methylene blue]
effect of inhibitor on neuritogenic action of AIT-082 (PC12 cells; PC12 cells): inhibited the action of AIT-082
effect of inhibitor on NGF neuritogenic activity (PC12 cells): no effect on NGF activity
effect of inhibitor on NGF neuritogenic activity (PC12 cells; listed as MB): no effect on NGF-stimulated neurite outgrowth
effect of inhibitor on neuritogenic effects of guanosine (PC12 cells; PC12 cells with guanosine and NGF): abolished the synergistic effects of guanosine with NGF

physostigmine, hemisulfate salt [reference compound]
subjects performing significantly above chance/total number of subjects (C57BL/6 mice [2]; Mild deficit, interval 60 sec): 7/8*
subjects performing significantly above chance/total number of subjects (C57BL/6 mice [2]; Mild deficit, interval 90 sec): 3/8
subjects performing significantly above chance/total number of subjects (C57BL/6 mice [2]; Mild deficit, interval 120 sec): 2/8
subjects performing significantly above chance/total number of subjects (C57BL/6 mice [2]; Mild deficit, interval 150 sec): 2/8
subjects performing significantly above chance/total number of subjects (C57BL/6 mice [2]; Mild deficit, interval 180 sec): 2/8
subjects performing significantly above chance/total number of subjects (C57BL/6 mice [2]; Mild deficit, interval 210 sec): 0/8
subjects performing significantly above chance/total number of subjects (C57BL/6 mice [2]; Moderate deficit, interval 10 sec): 6/6
subjects performing significantly above chance/total number of subjects (C57BL/6 mice [2]; [6]): 1/6
subjects performing significantly above chance/total number of subjects (C57BL/6 mice [2]; [7]): 0/6
subjects performing significantly above chance/total number of subjects (C57BL/6 mice [2]; [8]): 0/6
prolongation of memory (C57BL/6 mice [2]; moderate deficit group, PHY): ineffective in the moderate group
subjects performing significantly above chance/total number of subjects (Swiss Webster mice [3]; Mild deficit, interval 60 sec): 5/6*
subjects performing significantly above chance/total number of subjects (Swiss Webster mice [3]; Mild deficit, interval 90 sec): 3/6
subjects performing significantly above chance/total number of subjects (Swiss Webster mice [3]; Mild deficit, interval 120 sec): 2/6
subjects performing significantly above chance/total number of subjects (Swiss Webster mice [3]; Mild deficit, interval 150 sec): 2/6
subjects performing significantly above chance/total number of subjects (Swiss Webster mice [3]; Mild deficit, interval 180 sec): 1/6
subjects performing significantly above chance/total number of subjects (Swiss Webster mice [3]; Mild deficit, interval 210 sec): 0/6
subjects performing significantly above chance/total number of subjects (Swiss Webster mice [3]; [6]): 1/6
subjects performing significantly above chance/total number of subjects (Swiss Webster mice [3]; [7]): 0/6
subjects performing significantly above chance/total number of subjects (Swiss Webster mice [3]; [8]): 0/6
Win-shift Memory Test, Correct responses (Swiss Webster mice [4]): 6.5 Correct responses/10 trials
Correct (Mean score ± S.E.) (C57BL/6 mice [5]; inter-trial interval 180 sec): 65 ± 16
No. above chance/Total # (C57BL/6 mice [5]; inter-trial interval 180 sec): 3/6
Correct (Mean score ± S.E.) (C57BL/6 mice [5]; inter-trial interval 210 sec): 53 ± 9
No. above chance/Total # (C57BL/6 mice [5]; inter-trial interval 210 sec): 1/6
duration of the memory trace (C57BL/6 mice [5]; physostigmine, untreated 120 seconds): 180 s
